Assay results from US20110039869A1, “COMPOSITION FOR INHIBITING THE ACTIVITY OF INOSITOL 1,4,5-TRIPHOSPHATE RECEPTOR SUBTYPE III” (Korea Institute of Science and Technology, priority 2008, published 2011).
“Also recorded” adds a separate entry of the source. Like-named read-outs stand apart in the source and are kept apart here.

Assays:
[1] = test system: U178MG cells; experiment: Ca2+ imaging: block against agonist-induced intracellular Ca2+ release in U178MG cells; assay type: cell-based, human; settings: for TFLLR induced Ca2+ release: 10 mM compound; for IC50: Homo sapiens, U178MG cells
Procedure: 100 seconds after the treatment, the cells were divided into two separate groups, each being stimulated with GPCR (G-protein coupled receptors) agonists, i.e., […] or 10 μM bradykinin, respectively. […] The measurement of Ca^2+ concentration through the measurement of inward current was conducted as described in ‘Justin Lee, et al., The Journal of Physiology, Astrocytic control of synaptic NMDA receptor, 2007’, which is hereby incorporated by reference for all purposes as if fully set forth herein.
After 100 seconds, the cells were stimulated with 30 μM TFLLR.
Error bars indicate SEM. […] Such substance may include: iso-propyl theophylline, 7-(β-3-hydroxyethyl)theophylline, xanthine, theophylline, and 1,7-dimethyl-3-isobutyl xanthine.

[2] = test system: U178MG, U87MG, wtEGFR, and ΔEGRF cells; experiment: Scrape motility assay; assay type: cell-based, human; settings: 24 hours; 10 mM caffeine, 1 μM thapsigargin, 10 μM 2-APB, 20 μM CPA, 50 μM BAPTA-AM, 10 μM ryanodine
Procedure: The cell lines were obtained from Emory Uni (U178MG) and ATCC (U87MG, T98G, and M59K). All cell lines were grown as monolayers in 12-well culture plates in serum-containing media (Emory Uni). […] To prevent proliferation, fluorodeoxyuridine (FdU/U; Sigma) was added. After incubation for 24 hours, the cells were fixed in 4% paraformaldehyde. The area of repopulation of three 10× fields within the scrape areas were determined and the mean percentage of scrape area to wound closure was determined.

[3] = test system: shRNA for IP3R3 expressing U178MG cells; experiment: Block against Ca2+ responses in U178MG cells expressing shRNA for IP3R3; assay type: cell-based, human
Procedure: FIGS. 6d and 6e are Ca^2+ imaging result for U178MG cells, which were transfected with GFP-attached shRNA for IP3R3 via electroporation.

[4] = test system: U178MG, U87MG, U373MG, and T98G cells; experiment: Matrigel invasion assay; assay type: cell-based, human; settings: 24 h; 1, 2, 5, 10 mM caffeine; dose dependent
Procedure: The cell lines were obtained from ATCC. […] Cell invasion was assayed using transwell inserts (Corning, N.Y., USA) containing […] pore size in 24-well culture plates. For invasion assay, inserts were coated with 2 mg/ml basement membrane Matrigel (BD Bioscience, Bedford, Mass., USA). 1×10^5 cells in serum-free medium (FBS, DMEM, from GIBCO, Invitrogen, USA) were plated onto the upper side of insert and complete medium was placed in the lower chamber to act as a chemoattractant. After 24 h of incubation at 37° C., the cells on the upper side of insert were removed by wiping with a cotton swab and cells migrated to the lower side of membrane were stained with DAPI (Molecular Probes, Invitrogen, USA) and randomly photographed with microscopy at ×40 magnification. The mean number of untreated cells was considered as 100% invasion.

[5] = test system: glioma; experiment: Soft agar assay (colony formation); assay type: cell-based, human; settings: 0.5, 1, 2, 5, 10 mM caffeine; 14 to 17 days; dose dependent
Procedure: Cells (1×10^4) were seeded into 6-well plates in a soft agar (0.3%, Difco) overlaying a 0.6% base agar. […] Cells were incubated at 37° C. for 14 to 17 days to allow colonies to develop. Afterward colonies were stained with 0.05% cresyl violet and photographed. The group without caffeine treatment was used as a control. Each assay was done in triplicate (n=3).

[6] = test system: U178MG glioma cells; experiment: Invasion of U178MG glioma cells in organotypic hippocampal slice cultures (OHSCs); assay type: cell-based, human; settings: 1, 2, 5, 10 mM caffeine; 120 hours vs 1 hour; proportional to concentration
[7] = test system: U87MG cells; experiment: Xenograft tumor growth assay; assay type: in vivo, athymic mice (Balb/c nu/nu); settings: caffeine 1 mg/ml in drinking water from day 7; 4 weeks
Procedure: Five-week-old athymic mice (Balb/c nu/nu) were obtained from Central Lab. Animal Inc. (Japan). For the xenograft tumor growth assay, U87MG cells (3×10^5 cells/150 ul PBS) were injected subcutaneously into the right flanks of the mice (n=5 to 10 mice per group), and the experiment was conducted in triplicate. […] The control animals were given distilled water. Tumor mass was estimated twice per week for 4 weeks, and tumor volumes were calculated by the formula: […]

[8] = test system: U178MG cells; experiment: Dependence of caffeine action on store-operated channels or store depletion; assay type: cell-based, human; settings: 10 mM caffeine; thapsigargin 1 μM, cyclopiazonic acid 20 μM
Procedure: Firstly, 1 μM thapsigargin was applied for 2 min in Ca^2+ free HEPES buffer. After depletion of Ca^2+ from endoplasmic reticulum, extra solution was changed to 2 mM Ca^2+HEPES buffer.

[9] = test system: U178MG cells; experiment: Live imaging of cell migration; assay type: cell-based, human; settings: 10 minute intervals for 9 hours
[10] = test system: GBM, U178MG, T98G, U87MG and HEK293; experiment: Block against GPCR agonist-induced intracellular Ca2+ release in various cell types; assay type: cell-based, human; settings: 10 mM caffeine
Procedure: The cell lines were obtained from Department of Neurosurgery, Seoul National University College of Medicine (GBM), Emory Uni. ([…]) and ATCC (T98G, U87MG, and HEK293), respectively. […] Error bars are mean±SEM.

[11] = test system: U87MG cells; experiment: Orthotropic implantation model, survival rate; settings: 1 mg/ml caffeine containing drinking water

CC(C)Cn1c(=O)n(C)c(=O)c2c1ncn2C [1,7-dimethyl-3-isobutyl xanthine]
blocking effect on IP3R3 mediated-Ca2+ response ([1]; caffeine analogs, FIG. 10c): excellent selective blocking effect

NCCOB(c1ccccc1)c1ccccc1 [2-APB]
motility (wound closure by cell migration) [2]: mimicked

Cn1c(=O)c2c(ncn2CCO)n(C)c1=O [7-(β-3-hydroxyethyl)theophylline]
blocking effect on IP3R3 mediated-Ca2+ response ([1]; caffeine analogs, FIG. 10c): excellent selective blocking effect

CCn1cnc2c1c(=O)n(C)c(=O)n2C [7-ethyl theophylline]
TFLLR induced Ca2+ release ([1]; 30 μM TFLLR): no inhibition

CC(=O)OCOC(=O)CN(CC(=O)OCOC(C)=O)c1ccccc1OCCOc1ccccc1N(CC(=O)OCOC(C)=O)CC(=O)OCOC(C)=O [BAPTA-AM]
motility (wound closure by cell migration) [2]: mimicked

COc1ccc2c(c1)CC[C@@H]1[C@@H]2CC[C@]2(C)[C@@H](NCCCCCCN3C(=O)C=CC3=O)CC[C@@H]12 [U73122]
release of Ca2+ from intracellular stores in response to activation of GPCRs and RTKs ([1]; GBM cells): completely inhibited

Cn1c(=O)c2c(ncn2C)n(C)c1=O [caffeine]
increase of [Ca2+]i after stimulation with EGF or bradykinin ([1]; 10 mM caffeine, 100 ng/ml EGF or 10 μM bradykinin): no significant increase
TFLLR induced Ca2+ release ([1]; 30 μM TFLLR): inhibited
increase of TFLLR-induced intracellular Ca2+ concentration ([1]; 0.3, 3, 10, 30 mM caffeine, 30 μM TFLLR, concentration dependent): inhibits the increase
IC50 ([1]; EGF 100 ng/ml, read-out: IC50, Ca2+ release evoked by EGF): 1870 µM
IC50 ([1]; TFLLR 30 μM, read-out: IC50, Ca2+ release evoked by TFLLR): 2450 µM
block against Ca2+ responses, IP3R3 silenced by shRNA [3]: 20%
invasion through Matrigel [4]: reduced the invasion rate; also recorded: significantly inhibited
proliferation / anchorage-independent growth (colonies) [5]: reduced the anchorage-independent growth; also recorded: significantly inhibited
invasion area of DiI-stained cells [6]: invasion area was reduced
increase of tumor mass [7]: significantly inhibited
cause of Ca2+ block (store depletion, store-operated channels) [8]: not due to Ca^2+ depletion or block of Ca^2+ flow through TRPC
migration of U178MG cells [9]: significantly slowed down
GPCR-induced intracellular Ca2+ release in GBM, U178MG, T98G, U87MG and HEK293 [10]: inhibited
degree of inhibition of Ca2+ responses, U178MG cells compared with other cell types [10]: highest blocking effect
intracellular Ca2+ release ([10]; 10 μM bradykinin): blocked
intracellular Ca2+ release / Ca2+ responses, HEK293T cell line ([10]; 30 μM TFLLR): blocked; also recorded: lowest blocking effect
survival rate [11]: significantly increase the survival rate

CC(C)n1cnc2c1c(=O)n(C)c(=O)n2C [iso-propyl theophylline]
blocking effect against Ca2+ release (% block) ([1]; caffeine analogs, FIG. 10c): some degree of blocking effects
blocking effect on IP3R3 mediated-Ca2+ response ([1]; caffeine analogs, FIG. 10c): excellent selective blocking effect

C/C=C(/C)C(=O)O[C@H]1C(C)=C2[C@H]([C@@H]1OC(=O)CCCCCCC)[C@@](C)(OC(C)=O)C[C@H](OC(=O)CCC)[C@@]1(O)[C@H]2OC(=O)[C@@]1(C)O [thapsigargin]
subsequent induction increase in [Ca2+]i by bradykinin after store depletion ([1]; store depletion by thapsigargin): completely inhibited
motility (wound closure by cell migration) [2]: mimicked

Cn1c(=O)c2[nH]cnc2n(C)c1=O [theophylline]
blocking effect on IP3R3 mediated-Ca2+ response ([1]; caffeine analogs, FIG. 10c): excellent selective blocking effect

O=c1[nH]c(=O)c2[nH]cnc2[nH]1 [xanthine]
blocking effect on IP3R3 mediated-Ca2+ response ([1]; caffeine analogs, FIG. 10c): excellent selective blocking effect

ryanodine
motility (wound closure by cell migration) [2]: did not show any cell migration as such
